Source: the NIST ThermoML archive (doi:10.1021/je030215z)

Experiments:
[1] = 298.15 K; 101.33 kPa; Liquid
[2] = excess molar enthalpy (molar enthalpy of mixing); xn = mol fraction of the nth substance listed; settings: 298.15 K, 101.33 kPa, Liquid, Flow calorimetry

CCCCCCCCCC [decane]
Settings	mass density [kg/m3]
[1]	726.3

CCCCCCCCCCCC [dodecane]
Settings	mass density [kg/m3]
[1]	745.32

CCCCCCC [heptane]
Settings	mass density [kg/m3]
[1]	680.17

C=CCCCC [hex-1-ene]
Settings	mass density [kg/m3]
[1]	668.73

C=CCCCC [hex-1-ene] + CCCCCCC
[2]
Settings	excess molar enthalpy [kcal/mol]
x1 = 0.05	0.00266
x1 = 0.1	0.00507
x1 = 0.1499	0.00724
x1 = 0.1998	0.00898
x1 = 0.2496	0.0107
x1 = 0.2998	0.0121
x1 = 0.35	0.0131
x1 = 0.3984	0.0141
x1 = 0.4492	0.0146
x1 = 0.5005	0.0147
x1 = 0.5498	0.0147
x1 = 0.6	0.0143
x1 = 0.6496	0.0135
x1 = 0.6992	0.0126
x1 = 0.7497	0.0113
x1 = 0.8	0.00988
x1 = 0.8499	0.0079
x1 = 0.9	0.00559
x1 = 0.95	0.0028

C=CCCCC [hex-1-ene] + CCCCCCCC
[2]
Settings	excess molar enthalpy [kcal/mol]
x1 = 0.05	0.00272
x1 = 0.1	0.00532
x1 = 0.15	0.0078
x1 = 0.2036	0.00995
x1 = 0.2496	0.0115
x1 = 0.3	0.0131
x1 = 0.3497	0.0143
x1 = 0.3998	0.0153
x1 = 0.45	0.0158
x1 = 0.5	0.0162
x1 = 0.5499	0.0161
x1 = 0.5994	0.0157
x1 = 0.65	0.015
x1 = 0.6998	0.014
x1 = 0.7501	0.0126
x1 = 0.8002	0.0108
x1 = 0.8499	0.00882
x1 = 0.9	0.00628
x1 = 0.95	0.00332

C=CCCCC [hex-1-ene] + CCCCCCCCCC
[2]
Settings	excess molar enthalpy [kcal/mol]
x1 = 0.05	0.00385
x1 = 0.1	0.00726
x1 = 0.1503	0.0103
x1 = 0.2001	0.0129
x1 = 0.2482	0.0154
x1 = 0.2997	0.0174
x1 = 0.3504	0.019
x1 = 0.3999	0.0204
x1 = 0.4508	0.0211
x1 = 0.4994	0.0217
x1 = 0.5501	0.0217
x1 = 0.5996	0.0213
x1 = 0.6496	0.0204
x1 = 0.7004	0.019
x1 = 0.7495	0.0172
x1 = 0.7998	0.0149
x1 = 0.8501	0.0122
x1 = 0.9	0.00862
x1 = 0.95	0.00457

C=CCCCC [hex-1-ene] + CCCCCCCCCCCC
[2]
Settings	excess molar enthalpy [kcal/mol]
x1 = 0.0501	0.00512
x1 = 0.0999	0.00975
x1 = 0.15	0.0136
x1 = 0.1999	0.0174
x1 = 0.2521	0.0208
x1 = 0.2994	0.0235
x1 = 0.3494	0.0259
x1 = 0.4001	0.0277
x1 = 0.4503	0.0287
x1 = 0.5001	0.0293
x1 = 0.5505	0.0294
x1 = 0.5998	0.029
x1 = 0.6501	0.0278
x1 = 0.6999	0.026
x1 = 0.7499	0.0234
x1 = 0.8001	0.02
x1 = 0.8503	0.0162
x1 = 0.8999	0.0117
x1 = 0.95	0.00626

CCCCCCCC [octane]
Settings	mass density [kg/m3]
[1]	698.72

CCCCCCCCCCCCCC [tetradecane]
Settings	mass density [kg/m3]
[1]	759.36

CCCCCCCCCCCCCC [tetradecane] + C=CCCCC
[2]
Settings	excess molar enthalpy [kcal/mol]
x2 = 0.05	0.00618
x2 = 0.1001	0.0124
x2 = 0.1501	0.0179
x2 = 0.2003	0.0228
x2 = 0.2499	0.0271
x2 = 0.297	0.0305
x2 = 0.3497	0.0339
x2 = 0.4002	0.0363
x2 = 0.4498	0.0376
x2 = 0.5	0.0386
x2 = 0.5497	0.0387
x2 = 0.5998	0.038
x2 = 0.6495	0.0364
x2 = 0.6996	0.0339
x2 = 0.7502	0.0306
x2 = 0.7996	0.0264
x2 = 0.8498	0.0211
x2 = 0.8999	0.015
x2 = 0.95	0.00747
